In patent publication US20180185408A1, “ANTIFUNGAL NYLON-3 POLYMERS AND COMBINATION THERAPY USING THEM TO TREAT FUNGAL INFECTIONS” (priority 2016, published 2018):
Values after ≈ are worked out from the molar mass of the structure shown. Values joined by “and” are separate entries in the source; they are usually repeats but may differ in a detail not shown here. Equal values may be shown once. Read-outs that look alike come from different tables or passages of the source.

Columns and labels:
P. murina = assay: Pneumocystis ATP assay (ATP-lite M); assay type: cell-based, Pneumocystis murina
P. carinii = assay: Pneumocystis ATP assay (ATP-lite M); assay type: cell-based, Pneumocystis carinii
Aspergillus fumigatus [1] = assay: Checkerboard microdilution synergy (FIC); assay type: cell-based; conditions: for MIC: Aspergillus fumigatus; for MIC azole combination: POS in combination with MM:TM
Rhizopus arrhizus = assay: MIC100 against filamentous fungi (CLSI M38-A2); assay type: cell-based; conditions: for polymer efficacy against filamentous fungi, 100%: Clinical isolate
Aspergillus terreus [2] = assay: microbe, parasite or virus in culture
Aspergillus fumigatus [3] = assay: microbe, parasite or virus in culture
P. marneffei mold = assay: MIC by broth microdilution (EUCAST-AST-[…]); assay type: cell-based; conditions: 1.00×10^5 cells/mL, 35° C.
Aspergillus spp. = assay: microbe, parasite or virus in culture
Aspergillus terreus [4] = conditions: A. terreus; RPMI 1640 (0.2% Glucose); 1.00×10^5 cells/mL; 35° C.
Scedosporium prolificans = assay: MIC100 against filamentous fungi (CLSI M38-A2); assay type: cell-based
H. capsulatum = assay: microbe, parasite or virus in culture; assay type: cell-based; conditions: Histoplasma capsulatum
Paecilomyces variotii = assay: MIC100 against filamentous fungi (CLSI M38-A2); assay type: cell-based
[5] = system: Scedosporium apoiospermum; assay: MIC100 against filamentous fungi (CLSI M38-A2); assay type: cell-based; conditions: for polymer efficacy against filamentous fungi, 100%: Clinical isolate
Coccidioides spps. = assay: microbe, parasite or virus in culture; assay type: cell-based
Fusarium oxysporum = assay: MIC100 against filamentous fungi (CLSI M38-A2); assay type: cell-based; conditions: for polymer efficacy against filamentous fungi, 100%: Clinical isolate; for MIC: Fusarium oxysporum
B. dermatitidis = assay: MIC80 against dimorphic fungi (CLSI M38-A2); assay type: cell-based; conditions: Blastomyces dermatitidis
Aspergillus fumigatus [6] = system: Aspergillus fumigatus
[7] = MM:TM with posaconazole, isolate CEA10 (Sensitive), […] 10^5 cells/mL
[8] = MM:TM with posaconazole, isolate F11628 (Resistance), […] 10^5 cells/mL
[9] = MM:TM with posaconazole, isolate F16216 (Resistance), […] 10^5 cells/mL

SMILES: N=C(N)c1ccc(OCCCCCOc2ccc(C(=N)N)cc2)cc1 [Pentamidine]
- P. murina % reduction in ATP/vehicle control (P. murina; 1 ug/mL, 24 hour): 90.80%
- P. murina % reduction in ATP/vehicle control (P. murina; 1 ug/mL, 48 hr): 84.39%
- P. murina % reduction in ATP/vehicle control (P. murina; 1 ug/mL, 72 hr): 91.86%
- P. carinii % reduction in ATP/vehicle control (P. carinii; 1 ug/mL, 24 hour): 86.79%
- P. carinii % reduction in ATP/vehicle control (P. carinii; 1 ug/mL, 48 hr): 87.62%
- P. carinii % reduction in ATP/vehicle control (P. carinii; 1 ug/mL, 72 hr): 95.23%

SMILES: CC1(C)S[C@@H]2[C@H](NC(=O)[C@H](N)c3ccccc3)C(=O)N2[C@H]1C(=O)O [Ampicillin]
- P. murina % reduction in ATP/vehicle control (P. murina; 10 ug/mL, 24 hour): 0%
- P. murina % reduction in ATP/vehicle control (P. murina; 10 ug/mL, 48 hr): 0.9%
- P. murina % reduction in ATP/vehicle control (P. murina; 10 ug/mL, 72 hr): 0%
- P. carinii % reduction in ATP/vehicle control (P. carinii; 10 ug/mL, 24 hour): 12.28%
- P. carinii % reduction in ATP/vehicle control (P. carinii; 10 ug/mL, 48 hr): 0%
- P. carinii % reduction in ATP/vehicle control (P. carinii; 10 ug/mL, 72 hr): 2.65%

SMILES: CC[C@@H]([C@H](C)O)n1ncn(-c2ccc(N3CCN(c4ccc(OC[C@@H]5CO[C@@](Cn6cncn6)(c6ccc(F)cc6F)C5)cc4)CC3)cc2)c1=O [Posaconazole, posaconazole]
- FICazole (Aspergillus fumigatus [1]; 08-12-12-13 Cyp51 [TR34/L98H], POS with MM:TM): 1.000
- FICazole (Aspergillus fumigatus [1]; 08-31-08-91 Cyp51 [TR34/L98H], POS with MM:TM, listed as POS): 0.500 and 0.250
- FICazole (Aspergillus fumigatus [1]; 08-36-03-25 Cyp51 [TR34/L98H], POS with MM:TM, listed as POS): 0.500 and 0.474
- FICazole (Aspergillus fumigatus [1]; 12-7505220 Cyp51 [TR34/L98H], POS with MM:TM, listed as POS): 0.240 and 0.263
- FICazole (Aspergillus fumigatus [1]; AF293, POS with MM:TM): 0.21
- FICazole (Aspergillus fumigatus [1]; AF293, POS with MM:TM, listed as POS): 0.25
- MIC (Aspergillus fumigatus [1]; 48 h, CEA10, MM:TM with Posaconazole, single agent, 48 h, read-out: MIC Alone): 0.7 µM
- MIC (Aspergillus fumigatus [1]; 48 h, CEA10, POS as single agent, 35° C.): 0.75 µg/mL
- MIC (Aspergillus fumigatus [1]; 48 h, F11628, POS as single agent, 35° C.): 48 µg/mL and 68.5 µM
- MIC (Aspergillus fumigatus [1]; 48 h, F16216, POS as single agent, 35° C.): 2 µg/mL and 2.85 µM
- MIC (Aspergillus fumigatus [1]; [7]): 0.5 µg/mL
- MIC (Aspergillus fumigatus [1]; [8]): 48 µg/mL
- MIC (Aspergillus fumigatus [1]; [9]): 1.75 µg/mL
- MIC Combined (Aspergillus fumigatus [1]; CEA10, MM:TM with Posaconazole in combination, 48 h): 0.1 µM
- MIC azole combination (Aspergillus fumigatus [1]; CEA10, 48 h, 35° C., listed as POS): 0.13 μg/mL and 0.19 μM
- FICazole (Aspergillus fumigatus [1]; CEA10, POS with MM:TM, listed as POS): 0.173 and 0.250 and 0.200
- FICazole (Aspergillus fumigatus [1]; D5 Cyp51 [G54E], POS with MM:TM, listed as POS): 0.125 and 0.063
- FICazole (Aspergillus fumigatus [1]; D7 Cyp51 [WT], POS with MM:TM): 0.263
- MIC azole combination (Aspergillus fumigatus [1]; F11628, 48 h, 35° C.): 0.13 µM
- FICazole (Aspergillus fumigatus [1]; F11628, POS with MM:TM, listed as POS): 0.002 and 0.001
- MIC azole combination (Aspergillus fumigatus [1]; F16216, 48 h, 35° C.): 2.14 µM
- FICazole (Aspergillus fumigatus [1]; [7]): 0.200
- FICazole (Aspergillus fumigatus [1]; [8]): 0.001
- FICazole (Aspergillus fumigatus [1]; [9]): 0.571
- increase in efficacy in the presence of MM:TM (Aspergillus fumigatus [1]; azole-resistant strain F11628): > 600 fold
- polymer efficacy against filamentous fungi, 100% (Rhizopus arrhizus; R. arrhizus RA1, Nose Tissue): 0.5
- polymer efficacy against filamentous fungi, 100% (Rhizopus arrhizus; R. arrhizus RA2, Tissue Upper Extremity): 0.5
- polymer efficacy against filamentous fungi, 100% (Rhizopus arrhizus; R. arrhizus RA3, Palate Tissue): 0.5
- MIC (Rhizopus arrhizus; Rhizopus arrhizus isolate RA1): 0.5 µg/mL (≈ 0.713 µM)
- MIC100 (Rhizopus arrhizus; Rhizopus arrhizus isolate RA2): 0.5 µg/mL (≈ 0.713 µM)
- MIC100 (Rhizopus arrhizus; Rhizopus arrhizus isolate RA3): 0.5 µg/mL (≈ 0.713 µM)
- MIC (Aspergillus terreus [2]): 1.4 µM and 1 µg/mL
- MIC (Aspergillus terreus [2]; 48 h): 1 µg/mL and 1.4 µM
- MIC (Aspergillus fumigatus [3]; 48 h, A. fumigatus AF293, visually, 1 × 10^5 cells/mL, 35° C.): 2 µg/mL and 2.9 µM
- MIC (Aspergillus fumigatus [3]; 48 h, A. fumigatus CEA10, visually, 1 × 10^5 cells/mL, 35° C.): 0.5 µg/mL and 0.7 µM
- MIC (Aspergillus fumigatus [3]; 48 h, A. fumigatus F11628, visually, 1 × 10^5 cells/mL, 35° C.): > 32 µg/mL and > 45.7 µM
- MIC (Aspergillus fumigatus [3]; 48 h, A. fumigatus F16216, visually, 1 × 10^5 cells/mL, 35° C.): 1.7 µg/mL and 2.5 µM
- MIC (Aspergillus fumigatus [3]; A. fumigatus AF293): 2.9 µM
- MIC (Aspergillus fumigatus [3]; A. fumigatus AF293, RPMI 1640 (0.2% Glucose), 1.00×10^5 cells/mL, 35° C.): 2 µg/mL
- MIC (Aspergillus fumigatus [3]; A. fumigatus AF293, RPMI 1640 (2% Glucose), 1.00×10^5 cells/mL, 35° C.): 1 µg/mL
- MIC (Aspergillus fumigatus [3]; A. fumigatus CEA10): 0.7 µM
- MIC (Aspergillus fumigatus [3]; A. fumigatus CEA10, RPMI 1640 (0.2% Glucose), 1.00×10^5 cells/mL, 35° C.): 0.5 µg/mL
- MIC (Aspergillus fumigatus [3]; A. fumigatus CEA10, RPMI 1640 (2% Glucose), 1.00×10^5 cells/mL, 35° C.): 0.5 µg/mL
- MIC (Aspergillus fumigatus [3]; A. fumigatus F11628): > 45.6 µM
- MIC (Aspergillus fumigatus [3]; A. fumigatus F11628, RPMI 1640 (0.2% Glucose), 1.00×10^5 cells/mL, 35° C.): > 32 µg/mL
- MIC (Aspergillus fumigatus [3]; A. fumigatus F11628, RPMI 1640 (2% Glucose), 1.00×10^5 cells/mL, 35° C.): > 32 µg/mL
- MIC (Aspergillus fumigatus [3]; A. fumigatus F16216): 2.5 µM
- MIC (Aspergillus fumigatus [3]; azole resistant strain F11628): > 45 µM
- MIC (Aspergillus fumigatus [3]; strain F16216): 2.5 µM
- MIC (P. marneffei mold; RPMI 1640 (0.2% Glucose)): 0.5 µg/mL (≈ 0.713 µM)
- MIC (P. marneffei mold; Talaromyces marneffei, RPMI 1640 (2% Glucose), read-out: MIC): 0.5 µg/mL (≈ 0.713 µM)
- MIC (Aspergillus spp.): ~1 µM (≈ 0.701 µg/mL)
- MIC (Aspergillus terreus [4]): 1.0 µg/mL (≈ 1.43 µM)

SMILES: C[C@@H](c1ncncc1F)[C@](O)(Cn1cncn1)c1ccc(F)cc1F [VOR, voriconazole]
- polymer efficacy against filamentous fungi, 100% (Scedosporium prolificans; L. prolificans LP1, Chest Wound, Clinical isolate): >16
- MIC (Scedosporium prolificans; Lomentospora prolificans, S. prolificans): > 16 µg/mL
- MIC100 (Scedosporium prolificans; Scedosporium prolificans isolate LP1): >16 µg/mL
- MIC80 (H. capsulatum; Histoplasma capsulatum isolate HC1): ≤ 0.03 µg/mL
- MIC80 (H. capsulatum; Histoplasma capsulatum isolate HC2): 0.25 µg/mL (≈ 0.716 µM)
- MIC80 (H. capsulatum; Histoplasma capsulatum isolate HC3): 0.125 µg/mL (≈ 0.358 µM)
- MIC80 (H. capsulatum; Histoplasma capsulatum isolate HC4): 0.06 µg/mL (≈ 0.172 µM)
- MIC80 (H. capsulatum; Histoplasma capsulatum isolate HC5): 0.25 µg/mL (≈ 0.716 µM)
- MIC80 (H. capsulatum; Histoplasma capsulatum isolate HC6): 0.125 µg/mL (≈ 0.358 µM)
- MIC80 (H. capsulatum; Histoplasma capsulatum isolate HC7): 0.5 µg/mL (≈ 1.43 µM)
- MIC80 (H. capsulatum; Histoplasma capsulatum isolate HC8): 0.25 µg/mL (≈ 0.716 µM)
- MIC80 (H. capsulatum; Histoplasma capsulatum isolate HC9): 0.06 µg/mL (≈ 0.172 µM)
- MIC80 (H. capsulatum; Histoplasma capsulatum isolate HC10): 0.06 µg/mL (≈ 0.172 µM)
- polymer efficacy against filamentous fungi, 100% (Paecilomyces variotii; P. variotii QC, CLSI QC isolate for susceptibility testing): 0.125
- MIC (Paecilomyces variotii; Paecilomyces variotii, read-out: MIC100): 0.125 µg/mL (≈ 0.358 µM)
- polymer efficacy against filamentous fungi, 100% ([5]; S. apiopsermum SA1, Toe): 1
- polymer efficacy against filamentous fungi, 100% ([5]; S. apiopsermum SA2, Elbow Tissue): 1
- MIC ([5]; Scedosporium apiopsermum isolate SA1): 1 µg/mL (≈ 2.86 µM)
- MIC100 ([5]; Scedosporium apiopsermum isolate SA2): 1 µg/mL (≈ 2.86 µM)
- MIC80 (Coccidioides spps.; Coccidioides sp. isolate Cocci 1): 0.25 µg/mL (≈ 0.716 µM)
- MIC80 (Coccidioides spps.; Coccidioides sp. isolate Cocci 2): 0.125 µg/mL (≈ 0.358 µM)
- MIC80 (Coccidioides spps.; Coccidioides sp. isolate Cocci 3): 0.06 µg/mL (≈ 0.172 µM)
- MIC80 (Coccidioides spps.; Coccidioides sp. isolate Cocci 5): 0.125 µg/mL (≈ 0.358 µM)
- MIC80 (Coccidioides spps.; Coccidioides sp. isolate Cocci 6): 0.25 µg/mL (≈ 0.716 µM)
- MIC80 (Coccidioides spps.; Coccidioides sp. isolate Cocci 7): 0.125 µg/mL (≈ 0.358 µM)
- MIC80 (Coccidioides spps.; Coccidioides sp. isolate Cocci 8): 0.125 µg/mL (≈ 0.358 µM)
- MIC80 (Coccidioides spps.; Coccidioides sp. isolate Cocci 9): 1 µg/mL (≈ 2.86 µM)
- MIC80 (Coccidioides spps.; Coccidioides sp. isolate Cocci 10): 0.06 µg/mL (≈ 0.172 µM)
- polymer efficacy against filamentous fungi, 100% (Fusarium oxysporum; F. oxysporum FO1, Blood): 4
- polymer efficacy against filamentous fungi, 100% (Fusarium oxysporum; F. oxysporum FO2, Bone): 4
- polymer efficacy against filamentous fungi, 100% (Fusarium oxysporum; F. oxysporum FO3, Blood): >16
- MIC (Fusarium oxysporum; Fusarium oxysporum isolate FO1): 4 µg/mL (≈ 11.5 µM)
- MIC (Fusarium oxysporum; Fusarium oxysporum isolate FO2): 4 µg/mL (≈ 11.5 µM)
- MIC (Fusarium oxysporum; Fusarium oxysporum isolate FO3): > 16 µg/mL
- MIC80 (B. dermatitidis; Blastomyces dermatitidis isolate BD1): ≤ 0.03 µg/mL
- MIC80 (B. dermatitidis; Blastomyces dermatitidis isolate BD3): 0.5 µg/mL (≈ 1.43 µM)
- polymer efficacy against filamentous fungi, 100% (Aspergillus fumigatus [6]; A. fumigatus AF1, AF293, Lung): 1
- polymer efficacy against filamentous fungi, 100% (Aspergillus fumigatus [6]; A. fumigatus AF2, Clinical isolate, Azole resistant): 1
- polymer efficacy against filamentous fungi, 100% (Aspergillus fumigatus [6]; A. fumigatus AF3, Clinical isolate, Azole susceptible): 0.25
